{"source": "ChEMBL document CHEMBL4706707", "about": "“Discovery of novel HBV capsid assembly modulators by structure-based virtual screening and bioassays” (Bioorg Med Chem, 2021)", "key": {"[1]": {"system": "Hepatitis B virus", "experiment": "Antiviral activity against HBV infected in human HepG2.2.15 cells assessed as inhibition of viral growth measured by reduction in DNA level at 20 uM compound addition at every 3 days for 7 days by qPCR analysis relative to control", "assay_type": "functional", "details": "HepG2.2.15, 168 h, time 7 day"}, "[2]": {"experiment": "Cytotoxicity against human HepG2.2.15 cells assessed as reduction in cell viability compound addition at every 3 days for 7 days by MTT assay", "assay_type": "cell-based, HepG2 2.2.15", "details": "time 7 day"}, "[3]": {"system": "Hepatitis B virus", "experiment": "Antiviral activity against HBV infected in human HepG2.2.15 cells assessed as inhibition of viral growth measured by reduction in DNA level compound addition at every 3 days for 7 days by qPCR analysis", "assay_type": "functional, organism-based"}, "[4]": {"system": "HEK293T", "experiment": "Inhibition of HBV VFP-fused HBV-VN (N1 to 154 residue)/ VFP-fused HBV-VC (C155 to 239 residue) capsid protein assembly in 293T cells assessed as mean flouroscent intensity sat 50 uM by BIFC assay", "assay_type": "cell-based", "details": "Hepatitis B virus"}}, "data": [{"smiles": "O=C(Nc1ccccc1N1CCN(C(=O)c2ccccc2)CC1)C(c1ccccc1)c1ccccc1", "values": [{"measurement": "inhibition at 20 µM", "setting": "[1]", "result": 12.2, "unit": "%"}]}, {"smiles": "O=C(CCCCC(=O)Nc1ccccc1C(=O)Nc1cccc(Cl)c1)Nc1ccccc1C(=O)Nc1cccc(Cl)c1", "values": [{"measurement": "inhibition at 20 µM", "setting": "[1]", "result": 30.1, "unit": "%"}]}, {"smiles": "O=C(c1cc(-c2ccsc2Cl)nc2ccccc12)N1CCN(C/C=C/c2ccccc2)CC1", "values": [{"measurement": "CC50 at 168 h", "setting": "[2]", "result": "> 20", "unit": "µM"}, {"measurement": "EC50", "setting": "[3]", "result": 11.9, "unit": "µM"}]}, {"smiles": "Cc1ccc(-c2cc(C(=O)N3CCN(Cc4ccccc4)CC3)c3ccccc3n2)cc1", "values": [{"measurement": "CC50 at 168 h", "setting": "[2]", "result": "> 20", "unit": "µM"}, {"measurement": "EC50", "setting": "[3]", "result": 14.5, "unit": "µM"}]}, {"smiles": "O=C(c1cc(-c2ccsc2Cl)nc2ccccc12)N1CCC(Cc2ccccc2)CC1", "values": [{"measurement": "CC50 at 168 h", "setting": "[2]", "result": "> 20", "unit": "µM"}, {"measurement": "EC50", "setting": "[3]", "result": 6.7, "unit": "µM"}]}, {"smiles": "O=C(CN1C(=O)c2ccccc2C1=O)Nc1ccccc1C(=O)N(Cc1ccccc1)Cc1ccccc1", "values": [{"measurement": "inhibition at 20 µM", "setting": "[1]", "result": 23.3, "unit": "%"}]}, {"smiles": "Cc1ccc(-c2n[nH]c(SCC(=O)N3c4ccccc4Sc4ccccc43)n2)cc1", "values": [{"measurement": "inhibition at 20 µM", "setting": "[1]", "result": 48.7, "unit": "%"}]}, {"smiles": "CCN(C(=O)Cn1c([C@@H]2CC(=O)N(c3ccccc3C)C2)nc2ccccc21)c1ccccc1", "values": [{"measurement": "inhibition at 20 µM", "setting": "[1]", "result": -8.36, "unit": "%"}]}, {"smiles": "O=C(NCc1ccc(Cl)cc1)c1cc(-c2ccccc2)nc2ccccc12", "values": [{"measurement": "CC50 at 168 h", "setting": "[2]", "result": "> 20", "unit": "µM"}, {"measurement": "EC50", "setting": "[3]", "result": 15.7, "unit": "µM"}]}, {"smiles": "Cc1ccc(-c2cc(C(=O)N3CCC(Cc4ccccc4)CC3)c3ccccc3n2)cc1", "values": [{"measurement": "CC50 at 168 h", "setting": "[2]", "result": "> 20", "unit": "µM"}, {"measurement": "EC50", "setting": "[3]", "result": 11.7, "unit": "µM"}]}, {"smiles": "N#CC1=C(N)N(c2nc[nH]n2)C2=C(C(=O)C[C@@H](c3ccccc3)C2)[C@H]1c1cccnc1", "values": [{"measurement": "inhibition at 20 µM", "setting": "[1]", "result": 33, "unit": "%"}]}, {"smiles": "O=C(Nc1c(C(=O)N2CCCCCC2)cnn1-c1ccccc1)c1cccc(F)c1", "values": [{"measurement": "inhibition at 20 µM", "setting": "[1]", "result": 13.5, "unit": "%"}]}, {"smiles": "O=C(c1cc(-c2cccc(Br)c2)nc2ccccc12)N1CCC(Cc2ccccc2)CC1", "values": [{"measurement": "CC50 at 168 h", "setting": "[2]", "result": "> 20", "unit": "µM"}, {"measurement": "EC50", "setting": "[3]", "result": "> 20", "unit": "µM"}]}, {"smiles": "O=C(Nc1cc(Cl)ccc1O)c1cccc(N2C(=O)c3ccccc3C2=O)c1", "values": [{"measurement": "inhibition at 20 µM", "setting": "[1]", "result": 8.12, "unit": "%"}]}, {"smiles": "CCOC(=O)C1=C(CN2CCOCC2)NC(c2nccs2)=N[C@H]1c1ccc(F)cc1Br", "values": [{"measurement": "Flu intensity", "setting": "[4]", "result": 0.41}]}, {"smiles": "Cc1cccc(-c2cc(C(=O)N3CCC(Cc4ccccc4)CC3)c3ccccc3n2)c1", "values": [{"measurement": "Flu intensity", "setting": "[4]", "result": 0.25}, {"measurement": "CC50 at 168 h", "setting": "[2]", "result": "> 20", "unit": "µM"}, {"measurement": "EC50", "setting": "[3]", "result": 1.8, "unit": "µM"}]}, {"smiles": "COc1cc(OC)c(C(=O)Nc2cccc(S(=O)(=O)N3CCCC3)c2)cc1OC", "values": [{"measurement": "inhibition at 20 µM", "setting": "[1]", "result": 2.32, "unit": "%"}]}, {"smiles": "O=C(c1cc(-c2ccccc2)nc2ccccc12)N1CCC(Cc2ccccc2)CC1", "values": [{"measurement": "CC50 at 168 h", "setting": "[2]", "result": "> 20", "unit": "µM"}, {"measurement": "EC50", "setting": "[3]", "result": 8.7, "unit": "µM"}]}, {"smiles": "O=C(Nc1ccccc1F)c1ccccc1C(=O)Nc1ccccc1F", "values": [{"measurement": "inhibition at 20 µM", "setting": "[1]", "result": 38.5, "unit": "%"}]}, {"smiles": "COc1ccccc1N1CCN(C(=O)c2cc(-c3ccc(C)c(C)c3)nc3ccccc23)CC1", "values": [{"measurement": "CC50 at 168 h", "setting": "[2]", "result": "> 20", "unit": "µM"}, {"measurement": "EC50", "setting": "[3]", "result": 15.3, "unit": "µM"}]}, {"smiles": "Cc1ccc(CN2C(=N)C(C(=O)NCc3cccnc3)=CC3C(=O)N4C=CC=CC4=NC32)cc1", "note": "(centres undefined)", "values": [{"measurement": "inhibition at 20 µM", "setting": "[1]", "result": 54.5, "unit": "%"}]}, {"smiles": "Cc1ccc(-c2cc(C(=O)N3CCN(C/C=C/c4ccccc4)CC3)c3ccccc3n2)cc1C", "values": [{"measurement": "CC50 at 168 h", "setting": "[2]", "result": "> 20", "unit": "µM"}, {"measurement": "EC50", "setting": "[3]", "result": 5.6, "unit": "µM"}, {"measurement": "inhibition at 20 µM", "setting": "[1]", "result": 72.5, "unit": "%"}]}, {"smiles": "CCOc1cccc(-c2cc(C(=O)NCc3nnc(C(C)(C)CC)s3)c3ccccc3n2)c1", "values": [{"measurement": "CC50 at 168 h", "setting": "[2]", "result": "> 20", "unit": "µM"}, {"measurement": "EC50", "setting": "[3]", "result": "> 20", "unit": "µM"}]}, {"smiles": "CC(C)Cc1ccc(-c2cc(C(=O)N3CCC(Cc4ccccc4)CC3)c3ccccc3n2)cc1", "values": [{"measurement": "CC50 at 168 h", "setting": "[2]", "result": "> 20", "unit": "µM"}, {"measurement": "EC50", "setting": "[3]", "result": "> 20", "unit": "µM"}]}, {"smiles": "Cc1ccc([C@H](C)NC(=O)c2cc(-c3cccc(C)c3)nc3ccccc23)cc1", "values": [{"measurement": "CC50 at 168 h", "setting": "[2]", "result": "> 20", "unit": "µM"}, {"measurement": "EC50", "setting": "[3]", "result": "> 20", "unit": "µM"}]}, {"smiles": "CCOc1cccc(-c2cc(C(=O)N3CCC(Cc4ccccc4)CC3)c3ccccc3n2)c1", "values": [{"measurement": "CC50 at 168 h", "setting": "[2]", "result": "> 20", "unit": "µM"}, {"measurement": "EC50", "setting": "[3]", "result": 9.8, "unit": "µM"}]}, {"smiles": "Cc1ccc(C(=O)COC(=O)c2ccccc2NC(=O)Cc2ccccc2)cc1", "values": [{"measurement": "inhibition at 20 µM", "setting": "[1]", "result": 45.9, "unit": "%"}]}, {"smiles": "CCCc1nc2ccccc2n1Cc1nc2ccccc2n1CCO", "values": [{"measurement": "inhibition at 20 µM", "setting": "[1]", "result": 8.1, "unit": "%"}]}, {"smiles": "COc1ccc(-c2cc(C(=O)OCc3ccccc3)c3ccccc3n2)cc1", "values": [{"measurement": "CC50 at 168 h", "setting": "[2]", "result": "> 20", "unit": "µM"}, {"measurement": "EC50", "setting": "[3]", "result": "> 20", "unit": "µM"}]}, {"smiles": "Cn1c(=O)[nH]c(=O)c2c1nc(SCc1ccc(Cl)cc1)n2CCCc1ccccc1", "values": [{"measurement": "inhibition at 20 µM", "setting": "[1]", "result": 64.8, "unit": "%"}]}, {"smiles": "CS(=O)(=O)N1CCCc2cc(C(=O)Nc3ccccc3C(=O)NCc3ccccc3)ccc21", "values": [{"measurement": "inhibition at 20 µM", "setting": "[1]", "result": 36.6, "unit": "%"}]}, {"smiles": "O=C(OCc1ccc(Cl)cc1)c1cc(-c2ccccc2)nc2ccccc12", "values": [{"measurement": "CC50 at 168 h", "setting": "[2]", "result": "> 20", "unit": "µM"}, {"measurement": "EC50", "setting": "[3]", "result": "> 20", "unit": "µM"}]}, {"smiles": "O=C(c1cc(-c2ccsc2Cl)nc2ccccc12)N1CCN(Cc2ccccc2)CC1", "values": [{"measurement": "CC50 at 168 h", "setting": "[2]", "result": "> 20", "unit": "µM"}, {"measurement": "EC50", "setting": "[3]", "result": 8.3, "unit": "µM"}]}, {"smiles": "Cc1cccc(-c2cc(C(=O)NCc3ccccn3)c3ccccc3n2)c1", "values": [{"measurement": "CC50 at 168 h", "setting": "[2]", "result": "> 20", "unit": "µM"}, {"measurement": "EC50", "setting": "[3]", "result": "> 20", "unit": "µM"}]}]}
